“Also recorded” adds a separate entry of the source.
How the values were obtained:
[1] = tested on: Clostridium difficile toxin A-induced colitis; experiment: Toxin A-induced colitis, chronic oral administration in drinking water for 5 days; format: in vivo, Sprague-Dawley rats; settings: for potency relative to sulfasalazine for inhibiting toxin A-induced colitis: chronic oral, dose-response studies; for doses that significantly inhibited toxin A-induced colitis: chronically for 5 days in drinking water, doses tested 1-100
Protocol: Eighteen adult male Sprague-Dawley rats weighing 175-222 grams were divided into 3 groups each consisting of 6 animals: • 4-APAA (AA-002) 100 mg/kg orally+Toxin A (10 μg) injected into the lumen of the colon • Vehicle (DW) orally+Toxin A (10 μg) injected into the lumen of the colon • Vehicle (DW) orally
Following 5 days of 4-APAA administration in drinking water, both ketamine (67 mg/kg) and xylazine (33 mg/kg) were administered, an isolated colonic segment was surgically created, and 10 μg of Clostridium difficile toxin A was injected into the lumen of the colon. After 3 hours, the rats were euthanized and colonic inflammation was assessed by quantitating luminal fluid accumulation and myeloperoxidase (MPO) content in the colon tissue. In addition, histological evaluation of the treated colon segments was completed.
(§1) Drug Administration. In studies using chronic administration, sulfasalazine, APAZA™, and 4-APAA were administered in the drinking water at doses ranging from 0.1-100 mg/kg·d for 5 days. Sulfasalazine and APAZA™ were initially dissolved in 0.1 N NaOH at 30 times the desired final concentration and then the pH was adjusted to 8.5 with 1 N HCl and the solution was diluted 30-fold with distilled water. 4-APAA was dissolved in water. On the fifth day, the rats were fasted overnight (with access to their drinking water±sulfasalazine, APAZA™, or 4-APAA ad lib), anesthetized, and isolated colonic segments were surgically created as described below. In studies using acute administration, the rats were pretreated by injection of 4-APAA at doses of 10 or 100 μg in 200 μl of PBS (pH 7.4) into the lumen of the colonic segment using a 27 ga syringe needle. Toxin A (10 μg) in 200 μl of PBS (pH 7.4) was tested alone or injected into the lumen of the colonic segment 30 minutes after 4-APAA using a 27 ga syringe needle.
(§2) Surgery. Isolated colonic segments were created in male Sprague-Dawley rats (150-175 g) as described previously for isolated ileal segments (see, Gastroenterol. 111: 1272-1280 (1996) and Proc. Natl. Acad. Sci. USA 91: 947-951 (1994). Rats fasted overnight with free access to drinking water were anesthetized by intramuscular injection of 67 mg/kg ketamine:33 mg/kg xylazine. A midline abdominal incision was made and colonic segments 5 cm in length were created by ligation with 4-0 silk sutures, taking care not to disturb the vascular supply. Toxin A (10 μg) in 400 μl of PBS (pH 7.4) was injected into the lumen of the colonic segment using a 27 ga syringe needle. Control rats were prepared similarly and their colonic segments were injected with the vehicles. The midline incision was then closed with a running suture, and the rats were placed on a heating pad at 37° C. for 3 hours. After 3 hours, the rats were euthanized and samples of the treated colonic segments were taken for analysis in vitro.
(§3) Histopathology. The severity of colonic histological damage was assessed using formalin-fixed, paraffin-embedded, H&E-stained sections.
(§4) Luminal Fluid Accumulation. Luminal fluid accumulation was measured gravimetrically. After 3 hours of treatment, the isolated colonic segments were removed, weighed, and their lengths were measured. Luminal fluid accumulation is expressed as mg wet weight per cm length.
Myeloperoxidase Activity. Myeloperoxidase (MPO) activity was measured as described previously (see, J. Invest. Dermatol. 78: 206-209 (1982)). Briefly, pieces of control and treated colonic segments were homogenized in 0.5% hexadecyltrimethylammonium bromide in 50 mM KH2PO4 (pH 6), freeze/thawed three times, centrifuged at 4° C. for 2 minutes, and then the absorbance of each supernatant was read at 460 nm at 0, 30, and 60 seconds after the addition of 2.9 ml of o-dianisidine dihydrochloride to 0.1 ml supernatant. The maximal change in absorbance per minute was used to calculate the units of MPO activity based on the molar absorbency index of oxidized o-dianisidine of 1.13×10^4 M^−1 cm^−1. […]

[2] = tested on: Clostridium difficile toxin A-induced colitis; experiment: Toxin A-induced colitis, acute intraluminal pretreatment of isolated colonic segment; format: in vivo, Sprague-Dawley rats; settings: for toxin A-induced structural damage of the colon (H&E) / percent inhibition of toxin A-induced MPO activity / percent inhibition of toxin A-induced luminal fluid accumulation: 30 minutes before toxin A; for relative potency and interaction for inhibition of acute toxin A-induced colitis: given alone versus together
Protocol: as §1, §2, §3, §4
Myeloperoxidase Activity. Myeloperoxidase (MPO) activity was measured as described previously (see, J. Invest. Dermatol. 78: 206-209 (1982)). Briefly, pieces of control and treated colonic segments were homogenized in 0.5% hexadecyltrimethylammonium bromide in 50 mM KH2PO4 (pH 6), freeze/thawed three times, centrifuged at 4° C. for 2 minutes, and then the absorbance of each supernatant was read at 460 nm at 0, 30, and 60 seconds after the addition of 2.9 ml of o-dianisidine dihydrochloride to 0.1 ml supernatant. The maximal change in absorbance per minute was used to calculate the units of MPO activity based on the molar absorbency index of oxidized o-dianisidine of 1.13×10^4 M^−1 cm^−1. The results are expressed as MPO units of activity per mg of tissue wet weight.
Adult male Sprague-Dawley rats (175-225 grams body weight) were purchased from Charles River Labs (Raleigh, N.C.). 4-APAA and 5-ASA were separately injected into the lumen of an isolated segment of the rat colon at doses of 0.01, 0.1, 1, and 10 μg (in volumes of 200 μl) 30 minutes prior to injection of 10 μg of Clostridium difficile toxin A. In a follow-up study, a combined dose of 10 ng (0.01 μg) each of 4-APAA and 5-ASA was injected prior to toxin A.
[…] Colonic inflammation was assessed by quantitating luminal fluid accumulation and myeloperoxidase content in the colonic segment tissue, and by examination of colonic structural damage using hematoxylin & eosin-stained sections of the treated colonic segment.
Surgery. […]

[3] = 0.5 mg/kg·day in drinking water, 5 days
[4] = 1 mg/kg·day in drinking water, 5 days
[5] = 10 mg/kg·day in drinking water, 5 days
[6] = 100 mg/kg·day in drinking water, 5 days
[7] = 100 mg/kg·day in drinking water, 5 days, toxin A 10 μg
[8] = 0.01 μg (10 ng) each, intraluminal

SMILES	toxin A-induced MPO activity, significance of inhibition [1, 6]	toxin A-induced luminal fluid accumulation, significance of inhibition [1, 6]	toxin A-induced structural damage of the colon (H&E) [1, 6]	doses that significantly inhibited toxin A-induced colitis [1]	toxin A-induced MPO activity, significance of inhibition [2, 8]	toxin A-induced luminal fluid accumulation, significance of inhibition [2, 8]	toxin A-induced structural damage of the colon (H&E) [2, 8]	toxin A-induced luminal fluid accumulation, significance of inhibition ([2]; 0.1 μg intraluminal)	toxin A-induced structural damage of the colon (H&E) ([2]; 0.1 μg intraluminal)	toxin A-induced MPO activity, significance of inhibition ([2]; 1.0 μg intraluminal)	toxin A-induced luminal fluid accumulation, significance of inhibition ([2]; 1.0 μg intraluminal)	toxin A-induced structural damage of the colon (H&E) ([2]; 1.0 μg intraluminal)	toxin A-induced MPO activity, significance of inhibition ([2]; 10 μg intraluminal)	toxin A-induced luminal fluid accumulation, significance of inhibition ([2]; 10 μg intraluminal)	toxin A-induced structural damage of the colon (H&E) ([2]; 10 μg intraluminal)	relative potency and interaction for inhibition of acute toxin A-induced colitis [2]	also measured
O=C(O)Cc1ccc(/N=N/c2ccc(O)c(C(=O)O)c2)cc1 [APAZA™, 5-(4-carboxymethyl-phenylazo)-2-hydroxy-benzoic acid]	significantly inhibited	significantly inhibited	strongly protected	1-100 mg/kg·day													toxin A-induced structural damage of the colon (H&E) ([1]; 0.1 mg/kg·day in drinking water, 5 days): little if any protective effect; toxin A-induced luminal fluid accumulation, significance of inhibition [1, 3]: significantly inhibited; toxin A-induced structural damage of the colon (H&E) [1, 3]: partially protected; toxin A-induced MPO activity, significance of inhibition [1, 4]: significantly inhibited; toxin A-induced luminal fluid accumulation, significance of inhibition [1, 4]: significantly inhibited; toxin A-induced structural damage of the colon (H&E) [1, 4]: strongly protected; toxin A-induced MPO activity, significance of inhibition [1, 5]: significantly inhibited; toxin A-induced luminal fluid accumulation, significance of inhibition [1, 5]: significantly inhibited; toxin A-induced structural damage of the colon (H&E) [1, 5]: strongly protected; potency relative to sulfasalazine for inhibiting toxin A-induced colitis [1]: 10-20 fold; potency relative to sulfasalazine for inhibiting toxin A-induced colitis ([1]; listed as APAZA™ compound): 10-100 fold
Nc1ccc(CC(=O)O)cc1 [4-APAA, (4-aminophenyl)-acetic acid]	significantly inhibited	significantly inhibited	protected the structural integrity; also recorded: strongly protected	100 mg/kg·day	not significantly inhibited	significantly inhibited	did not prevent	significantly inhibited	preserved mucosal folding	significantly inhibited	significantly inhibited	preserved mucosal folding	significantly inhibited	significantly inhibited	strongly protected; also recorded: virtually completely protected	approximately equipotent	percent inhibition of toxin A-induced MPO activity [1, 7]: 89±8%; percent inhibition of toxin A-induced luminal fluid accumulation [1, 7]: 84±6%; percent inhibition of toxin A-induced MPO activity ([2]; 10 μg intraluminal): 91±8%; percent inhibition of toxin A-induced luminal fluid accumulation ([2]; 10 μg intraluminal): 52±4%; percent inhibition of toxin A-induced MPO activity ([2]; 100 μg intraluminal): 89±10%; percent inhibition of toxin A-induced luminal fluid accumulation ([2]; 100 μg intraluminal): 80±5%; toxin A-induced structural damage of the colon (H&E) ([2]; 100 μg intraluminal): strongly protected; lowest dose that strongly inhibited toxin A-induced colitis in this experiment ([2]; intraluminal injection 30 minutes before toxin A, 10 and 100 μg tested): 10 μg/segment
Nc1ccc(O)c(C(=O)O)c1 [5-ASA, 5-amino-2-hydroxy-benzoic acid, reference compound]					not significantly inhibited	significantly inhibited	did not prevent	significantly inhibited	partially preserved surface ulceration	significantly inhibited	significantly inhibited	mucosal folding was also largely preserved	significantly inhibited	significantly inhibited	virtually completely protected	approximately equipotent	
